The nature of data set [1]: Kinetic aqueous solubility.
Data set [2] is described as follows: in vitro. Type of data set: in vitro ADME, mouse. The protocol: (§1) […]. The incubation timepoints measured were 0, 5, 10, 15, 30, and 45 minutes. All samples were prepared in duplicate and analyzed by LC-MS/MS.
Data set [3] can be described thus: in vitro. Type of data set: in vitro ADME, human. The protocol:
as §1

In the next data set the target is T1, GPX4 (Homo sapiens, UniProt P36969).
T1 sequence (P36969 1-170 isoform P36969-2): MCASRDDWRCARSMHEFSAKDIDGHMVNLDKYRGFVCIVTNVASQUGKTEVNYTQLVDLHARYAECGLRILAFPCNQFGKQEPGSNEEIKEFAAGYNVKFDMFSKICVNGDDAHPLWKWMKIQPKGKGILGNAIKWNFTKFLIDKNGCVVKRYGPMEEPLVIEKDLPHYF
Nature of the data set: GPX4 activity assay in cell lysates (NADPH-coupled). Type of data set: biochemical. The following applies: for GPX4% inhibition at 200 (μM) / GPX4 inhibition: 200 μM. On the set-up: endogenous in cells; host or cells: A-673 cell lysate. In short, it runs like this:
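Native GPX4 in lysates of A-673 cells grown with 20 nM sodium selenite; lysate preincubated with compound 45 min at 37 °C in pH 8.0 buffer with 3 mM GSH, 0.5 mM NADPH and glutathione reductase. Reaction started with phosphatidylcholine hydroperoxide; NADPH consumption followed at 340 nm over 25 min; triplicates.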

In the next data set the test system is HepG2 cells. Nature of the data set: Cellular dose response assay, HepG2. It counts as cell-based, human. The following applies: Table 7. The source says:
(§2) HT-1080 (human [Homo sapiens] […] fibrosarcoma), A-673 (human [Homo sapiens] […] Ewing's sarcoma), and SK-HEP-1 (human [Homo sapiens] […] hepatic adenocarcinoma), cells were obtained from ATCC. Huh7 (human [Homo sapiens] […] hepatocellular carcinoma), HLF (human [Homo sapiens] […] hepatocellular carcinoma), HepG2 (human [Homo sapiens] […] hepatocellular carcinoma), cells were obtained from the Cancer Cell Bank at Columbia University Irving Medical Center. HT-1080, A-673, Huh-7, and HLF cells were grown in Dulbecco's Modified Eagle Medium (DMEM) supplemented with 10% heat inactivated fetal bovine serum (HI-FBS), 1% non-essential amino acids, and 1% penicillin streptomycin. HepG2 and SK-HEP-1 cells were grown in Eagle's Minimum Essential Medium (EMEM) supplemented with 10% HI-FBS, and 1% penicillin-streptomycin. All cells were cultured at 37° C. and 5% CO2.
(§3) HT-1080, HepG2, Huh7, HLF, and SK-HEP-1 cells were seeded into opaque white 384-well plates at 1500 cells per well then incubated at 37° C. with 5% CO2 overnight. The next day, compounds of interest were dissolved in DMSO and 12-point 2-fold dilution series were prepared with and without Fer-1. Cells were treated in triplicate (final DMSO concentration of 0.4% in all wells, including DMSO-only control wells) and incubated for a further 48 hours at 37° C. and 5% CO2. Cell viability was evaluated using CellTiter-Glo (Promega G7573) and luminescence was recorded on a Victor 5 plate reader. Data were analyzed in GraphPad Prism 9 and error bars represent standard deviation values for three technical replicates in a representative experiment.

Another data set deals with HLF cells. Nature of the data set: Cellular dose response assay, HLF. It counts as cell-based, human. The following applies: Table 7.
Text: as §2, §3

The next data set has as its system Huh7 cells. The data set is described as follows: Cellular dose response assay, Huh7. It counts as cell-based, human. The following applies: Table 7.
Text: as §2, §3

A further data set concerns SK-HEP-1 cells. Nature of the data set: Cellular dose response assay, SK-HEP-1. Type of data set: cell-based, human. The following applies: Table 7.
Text: as §2, §3

Another data set relates to HT-1080 cells. Nature of the data set: Cellular dose response assay, HT-1080 with and without Fer-1. Type of data set: cell-based, human. The gist of the method: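 Viability by CellTiter-Glo luminescence after 48 h exposure at 37 °C, 5% CO2. Compounds ran as 12-point 2-fold series, with or without Fer-1, in triplicate at 0.4% final DMSO, on cells plated at 1500/well the day before; SD from technical triplicates shown.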

The mark [4] stands for this setting: generation 1, mean ± s.d., n = 3.
Where [5] appears, read: compounds alone, read-out: IC50 (uM) HEPG2^a.
Setting [6] is: with fer-1, read-out: IC50 (uM) HEPG2^b.
Where [7] appears, read: compounds alone, read-out: IC50 (uM) HLF^a.
Where [8] appears, read: with fer-1, read-out: IC50 (uM) HLF^b.
The mark [9] stands for this setting: compounds alone, read-out: IC50 (uM) Huh7^a.
Where [10] appears, read: with fer-1, read-out: IC50 (uM) Huh7^b.
The mark [11] stands for this setting: compounds alone, read-out: IC50 (uM) SKHEP1^a.
Where [12] appears, read: with fer-1, read-out: IC50 (uM) SKHEP1^b.
The mark [13] stands for this setting: compounds alone, Table 7, read-out: IC50 (uM) HT1080^a.
[14] abbreviates: with fer-1, Table 7, read-out: IC50 (uM) HT1080^b.

Converted amounts (≈) assume the structure as drawn. Like-named read-outs stand apart in the source and are kept apart here.

The term Solubility denotes the dissolved amount per volume that the medium holds. High values mean much dissolved substance, low ones little dissolved substance. As usually defined, the IC50 is the concentration that gives 50% inhibition.

In the case of `COc1ccc(N(C(=O)CCl)C(C(=O)NCCc2ccccc2)c2cccs2)cc1Cl` (stereo not shown) [ML162, reference compound], the “Solubility” value in [1] (aqueous solubility, Table 9) was 3.8 µM (≈ 1.81 µg/mL). Moreover, the “Microsome Stability t1/2 (min) mouse” value in “in vitro [2]” (mouse liver microsomes) came out at 1.5 min. Moreover, the “Microsome Stability t1/2 (min) human” value in the data set “in vitro [3]” (human liver microsomes) came out at 0.9 min.

Turning to `CC(C)(COC(=O)CBr)NC(=O)c1cc2cc([N+](=O)[O-])ccc2[nH]1` [QW-171], the “Solubility” value in [1] (aqueous solubility, Table 9) is 56 µM (≈ 22.3 µg/mL). For the same compound, the “Microsome Stability t1/2 (min) mouse” value in “in vitro [2]” (mouse, microsomes) is given as 283 min. Moreover, the “GPX4% inhibition at 200 (μM)” value at GPX4 (setting [4]) is reported as 83.9 ± 16.8%. Moreover, the “Microsome Stability t1/2 (min) human” value in “in vitro [3]” (human, microsomes) was determined as 187 min.

As for `Cn1nc(C(=O)NC(C)(C)COC(=O)CCl)c2ccccc21` [QW-312], in data set [1] (aqueous solubility, Table 9), the “Solubility” value was 98 µM (≈ 31.7 µg/mL). The IC50 in the data set with HepG2 cells (setting [5]) is 26.2 µM; in the data set with HepG2 cells (setting [6]), 180 µM; in the data set on HLF cells (setting [7]), 2.5 µM; in the data set with HLF cells (setting [8]) it was 58.1 µM; in the data set with Huh7 cells (setting [9]) it was 4.2 µM; with Huh7 cells (setting [10]), 122 µM. Further, the IC50 in the data set with SK-HEP-1 cells (setting [11]) is 28.4 µM; with SK-HEP-1 cells (setting [12]), 202 µM; with HT-1080 cells (setting [13]), 5.4 µM; in the data set with HT-1080 cells (setting [14]), 76.3 µM. The “Microsome Stability t1/2 (min) mouse” value in the data set “in vitro [2]” (mouse, microsomes) is 1.7 min. In addition, the “GPX4% inhibition at 20 (μM)” value at GPX4 (generation 2) was 72.5 ± 6.7%. Besides, the GPX4 inhibition result at GPX4 is given as “complete inhibition”. Further, the “GPX4% inhibition at 200 (μM)” value on GPX4 (generation 2) was found to be 95.8 ± 4.0%. In addition, in “in vitro [3]” (human, microsomes), the “Microsome Stability t1/2 (min) human” value was 2.9 min.

Take `CC(C)(COC(=O)CCl)NC(=O)c1n[nH]c2cc(Br)ccc12` [QW-313]: the “Solubility” value in data set [1] (aqueous solubility, Table 9) was 47 µM (≈ 18.3 µg/mL). For the same compound, the IC50 is 12.8 µM in the data set with HepG2 cells (setting [5]); 63.1 µM with HepG2 cells (setting [6]); 17 µM with Huh7 cells (setting [9]); 58.2 µM in the data set with Huh7 cells (setting [10]); 47 µM in the data set with SK-HEP-1 cells (setting [11]); 63.7 µM with SK-HEP-1 cells (setting [12]). For the same compound, the IC50 in the data set with HT-1080 cells (setting [13]) came out at 20.4 µM; in the data set on HT-1080 cells (setting [14]), 58.8 µM. Also, the “Microsome Stability t1/2 (min) mouse” value in the data set “in vitro [2]” (mouse, microsomes) is recorded as 12.1 min. Moreover, on GPX4 (generation 2), the “GPX4% inhibition at 20 (μM)” value was 53.8 ± 12.1%. On GPX4, the GPX4 inhibition result is listed as “complete inhibition”. For the same compound, the “GPX4% inhibition at 200 (μM)” value at GPX4 (generation 2) is 97.6 ± 2.5%. Moreover, the “Microsome Stability t1/2 (min) human” value in “in vitro [3]” (human, microsomes) came out at 9.7 min.

`CC(C)(COC(=O)CCl)NC(=O)c1c[nH]c2cc(Br)ccc12` [QW-316]: the “Solubility” value in data set [1] (aqueous solubility, Table 9) stood at 71 µM (≈ 27.5 µg/mL). For the same compound, the “Microsome Stability t1/2 (min) mouse” value in “in vitro [2]” (mouse, microsomes) was determined as 6 min. For the same compound, the “GPX4% inhibition at 200 (μM)” value on GPX4 (setting [4]) turned out to be 87.2 ± 9.2%. Further, in “in vitro [3]” (human, microsomes), the “Microsome Stability t1/2 (min) human” value is reported as 24 min.

As for `Cn1nc(C(=O)NC(C)(C)COC(=O)CBr)c2ccccc21` [QW-365], the IC50 in the data set with HepG2 cells (setting [5]) was 2.9 µM; in the data set on HepG2 cells (setting [6]), 18.6 µM; in the data set with HLF cells (setting [7]) it was 0.5 µM; in the data set with HLF cells (setting [8]) it was 8.8 µM; in the data set on Huh7 cells (setting [9]), 0.8 µM; with Huh7 cells (setting [10]), 16.8 µM. Further, the IC50 with SK-HEP-1 cells (setting [11]) stood at 0.3 µM; in the data set with SK-HEP-1 cells (setting [12]), 12.1 µM; in the data set on HT-1080 cells (setting [13]), 0.7 µM; in the data set on HT-1080 cells (setting [14]), 12.2 µM. On GPX4 (generation 2), the “GPX4% inhibition at 200 (μM)” value came to 94.5 ± 4.5%.

Take `COc1ccc(-c2ccc3c(C(=O)NC(C)(C)COC(=O)CCl)nn(C)c3c2)cc1` [QW-454]: the “Solubility” value in data set [1] (1% DMSO, Phosphate Buffered Saline pH 7.4, 1 hour, ambient, UV/Vis absorbance) amounted to 2.9 µM (≈ 1.25 µg/mL); in data set [1] (aqueous solubility, Table 9) it was 2.9 µM (≈ 1.25 µg/mL). For the same compound, in “in vitro [2]” (mouse, microsomes), the “Microsome Stability t1/2 (min) mouse” value is listed as 1.7 min. On GPX4 (5 μM), the “GPX4% inhibition at 5 μM” value is reported as 86.8 ± 2.6%. The IC50 with HT-1080 cells (HT1080 + Fer-1, read-out: IC50 (uM) HT1080 + Fer-1) stood at 11.5 µM; in the data set with HT-1080 cells (HT1080, without Fer-1, read-out: IC50 (uM) HT1080), 0.94 µM. In addition, the “ferroptosis induction / potency in HT-1080 cells, result in words” value in the data set on HT-1080 cells (RSL3 as control) is “sub-molar range cellular activities and decreased ferroptosis selectivity”. The Selectivity with HT-1080 cells (ferroptosis selectivity, HT1080 + Fer-1 vs HT1080) is on record as 12.2. Also, the “Microsome Stability t1/2 (min) human” value in the data set “in vitro [3]” (human, microsomes) is 1.8 min.

Values taken from patent US20250248979A1, “NOVEL GPX4 INHIBITORS AND USES THEREOF” (THE TRUSTEES OF COLUMBIA UNIVERSITY IN THE CITY OF NEW YORK, priority 2022, published 2025).
